Measured values: US8530433B2, “Use of icariside II in manufacture of products for preventing or treating male or female sexual dysfunction” (Bjo-Biomed Ltd, priority 2008, dated 2013)

Experiments:
PAE-EGFR cells [1] = assay: NOS enzyme activity in EGFR expressing PAE-EGFR cells, NOS kit; assay type: cell-based, porcine; settings: for NOS enzyme activity: PAE-EGFR cells
Protocol: Porcine vascular endothelial cells (PAE) were provided by the Institute of Urology, Peking University. The determination of the effect of icariside II on NOS activity in the endothelial cell is conducted using NOS kit (Cayman Chemical company, Ann Arbor, Mich., USA). Vascular endothelial cells (PAE) were treated with different concentrations of icariside II (0, 10^−9, 10^−8, 10^−7, 10^−6, 10^−5 and 10^−4 M) (sildenafil as the control group). 180 μl lysate was added into each culture well. 20 μl supernatant was used for protein concentration assay with BCA protein kit. And, 100 μl supernatant was analyzed for NOS activity with NOS kit (Cayman Chemical company, Ann Arbor, Mich., USA). NOS activity (units/mg)=[(valueNos-measure−valueNOS-blank)÷(38.3×10^6)]×[(2.15+supernatant volume)÷(15×supernatant volume)]÷[protein concentration of each Petri dish]. 1) The EGFR gene was subcloned into pGFP plasmid to construct pGFP-EGFR expression vector. With Liposome transfection reagent (Qigen), pGFP-EGFR was transfected into PAE cells. After the selection with 1800 μg/ml of G418, a single cell clone was selected. Western blot confirms the stable expression of EGFR in the PAE-EGFR cells.

PAE cells = assay: eNOS protein expression by Western blot in PAE cells; assay type: cell-based, porcine; settings: 12.5 μM, 24 hr; for eNOS protein expression (normalized to β-actin): PAE cells; for eNOS expression levels: unstable strains
Protocol: (§1) 2) 5×10^5 of the PAE cells and PAE-EGFR cells were seeded into 35 mm Petri dishes plate in quadruplicate. After 12 hours, PAE and PAE-EGFR cells was treated with 12.5 μM icariside II and sildenafil for 24 hr, respectively. Then the treated PAE and PAE-EGFR cells were lysed with RIPA buffer and subjected to 8% SDS-PAGE electrophoresis. eNOS protein expression was detect by Western blot. After development with super ECL luminescence substrate, the band was analyzed with a Optical density scanner. The results were analyzed by normalizing to β-actin. 3) 5×10^5 of the PAE cells and PAE-EGFR cells were seeded into 35 mm Petri dishes plate in quadruplicate. After 12 hours, PAE and PAE-EGFR cells was treated with 12.5 μM icariside II and sildenafil for 24 hr, respectively, in the presence or absence with 100 μg/ml of EGF. Then the treated PAE and PAE-EGFR cells were lysed with RIPA buffer and subjected to 8% SDS-PAGE electrophoresis. eNOS protein expression was detect by Western blot. After development with super ECL substrate, the band was analyzed with an Optical density scanner. The resulted results were analyzed by normalizing to β-actin.

PAE-EGFR cells [2] = assay: eNOS protein expression by Western blot in PAE-EGFR cells; assay type: cell-based, porcine; settings: 12.5 μM, 24 hr; for eNOS protein expression (normalized to β-actin): PAE-EGFR cells; for eNOS expression levels: PAE-EGFR stable strains
Protocol: as §1, with “1) The EGFR gene was subcloned into pGFP plasmid to construct pGFP-EGFR expression vector. With Liposome transfection reagent (Qigen), pGFP-EGFR was transfected into PAE cells. After the selection with 1800 μg/ml of G418, a single cell clone was selected. Western blot confirms the stable expression of EGFR in the PAE-EGFR cells. 2)” for “2)”

[3] = tested on: Corpus cavernosum smooth muscle cells; assay: Western blot protein expression of NOS isoforms, PDE5, PKG and sGC in corpus cavernosum smooth muscle cells; assay type: cell-based, human; settings: 12.5 μM; 1 and 2 days
Protocol: Corpus cavernosum smooth muscle cells were grown in 60 mm Petri dishes. […] Then the treated CCSMCs were lysed with RIPA buffer and subjected to 8% SDS-PAGE electrophosis. Expression of eNOS and other proteins were detected by Western blot. After exposing with super ECL luminescence substrate, the band was analyzed with a Optical density scanner. The resulted results were analyzed by normalizing to β-actin.

PDE5 = PDE5 (Homo sapiens, UniProt O76074); settings: tested in vitro; previous study; cited from earlier work
[4] = tested on: volunteers with erectile dysfunction; settings: 500 mg/time, single oral administration before sexual activity; cited from earlier work

Compound | NOS enzyme activity (PAE-EGFR cells [1]; 10^−5 M) | NOS enzyme activity (PAE-EGFR cells [1]; 10^−6 M) | NOS enzyme activity (PAE-EGFR cells [1]; 10^−7 M) | NOS enzyme activity (PAE-EGFR cells [1]; 10^−8 M) | NOS enzyme activity (PAE-EGFR cells [1]; 10^−9 M) | eNOS protein expression (normalized to β-actin) (PAE cells) | eNOS expression levels (PAE cells) | eNOS protein expression (normalized to β-actin) (PAE-EGFR cells [2]) | eNOS expression levels (PAE-EGFR cells [2]) | PDE5a protein expression [3] | PKG protein expression [3] | eNOS protein expression [3] | iNOS protein expression [3] | nNOS protein expression [3] | sGC protein expression [3] | NOS activity in PAE-EGFR cells higher than the activity in PAE cells (PAE-EGFR cells [1]; 10^−8 M) | NOS enzyme activity (PAE-EGFR cells [1]; 10^−8 M, listed as icariside II) | PDE5 inhibiting potency (PDE5) | erectile function after single oral administration [4]
CCCc1nn(C)c2c(=O)[nH]c(-c3cc(S(=O)(=O)N4CCN(C)CC4)ccc3OCC)nc12 [Sildenafil, sildenafil, reference compound] | 8.99 ± 0.87 u/mg | 8.4 ± 0.84 u/mg | 8.53 ± 0.84 u/mg | 8.37 ± 0.82 u/mg | 8.48 ± 0.85 u/mg | 1.12 ± 0.09 | 1.38 | 1.38 ± 0.013 | 1.12 | decrease | increase | no effect | no effect | no effect | no effect |  |  |  | 
icariside II | 22.74 ± 2.27 u/mg | 23.91 ± 2.36 u/mg | 22.79 ± 2.45 u/mg | 15.37 ± 1.51 u/mg | 11.72 ± 1.21 u/mg | 1.08 ± 0.09 | 2.08 | 2.08 ± 0.02 | 1.16 | significantly decreased | significantly increased | increased at 2 days | slightly increased | significantly increased | significantly increased | 4.66 u/mg | 15.37±1.49 u/mg | significantly lower than sildenafil | some improvement on erectile function, but the effect is not significant
